# Results from patent US20260144786A1, “METHOD FOR TREATING MENSTRUAL CYCLE DISORDERS” (Guangzhou HuTong Youwu Biotechnology Co., Ltd, priority 2023, published 2026).
# What was measured:
# [1] = Use of PQQ for preventing menstrual cycle disorders (oral tablets, six months, vitamin C control); type: in vivo, human; conditions: preliminary experimental data
# Experimental: (§1) The criteria for menstrual cycle disorders are as follows: 1. Early menstruation: Early menstruation refers to a shortened menstrual cycle that is shorter than 21 days and occurs for more than two consecutive cycles. It is a biphasic basal body temperature of ovulatory functional uterine bleeding, a short follicular phase of only 7 or 8 days; or a luteal phase of less than 10 days, or a temperature rise of less than 0.5° C. 2. Delayed menstruation: Menstruation is missed for more than 7 days, or even 40-50 days, and symptoms appear for more than 2 menstrual cycles. […] 3. Prolonged menstruation: The symptoms of this type of menstrual disorder are mainly a normal menstrual cycle but a prolonged menstrual period, lasting more than 7 days, or even up to 2 weeks before ending. Those with inflammation usually experience lower abdominal pain, which is aggravated during menstruation. Usually, the amount of leucorrhea is heavy, yellow or yellowish-white, thick, and odorous. Those with incomplete corpus luteum atrophy are also accompanied by heavy menstruation; those with prolonged endometrial repair still experience a small amount of persistent vaginal bleeding after the normal menstrual period. 4. Irregular menstruation: Menstruation is early or late, and the cycle is shorter than 21 days or longer than 35 days. No endometriosis. […]
# [2] = Use of PQQ for ameliorating or treating menstrual cycle disorders (oral tablets, six months, vitamin C control); type: in vivo, human; conditions: preliminary experimental data
# Experimental: as §1
structure (smiles),measurement,setting,value
"O=C(O)c1cc(C(=O)O)c2c(n1)C(=O)C(=O)c1cc(C(=O)O)[nH]c1-2 [PQQ, 4,5-dioxo-1H-pyrrolo[2,3-f]quinoline-2,7,9-tricarboxylic acid]",effect on preventing menstrual cycle disorders compared with a placebo,[1],significant effect
same,effect on alleviating or treating menstrual cycle disorders compared with a placebo,[2],significant effect
